# Active and inactive are the calls of the source.
# What was measured:
# [1] = C. albicans growth with fluconazole, confirmation, fluorescence, retest (AID 2467); format: functional, cell-based
# [2] = NIH-3T3 fibroblast cytotoxicity, dose response, cytotoxicity control, cell-based, fluorescence, Alamar Blue, secondary assay (AID 2327); format: functional;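 also: NIH-3T3 mouse fibroblasts cultured with fluconazole at 8 µg/mL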
# Fatty acid synthase [3] = target: T1, Fatty acid synthase (Homo sapiens, UniProt P49327); experiment: FAS thioesterase domain inhibitors, dose response, biochemical, kinetic fluorescence intensity (AID 624326); format: functional;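 also: rate of fluorescence rise from hydrolysis of a fluorogenic O-methyl fluorescein ester substrate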
# T1 sequence (P49327 whole entry, the tested form may be a part): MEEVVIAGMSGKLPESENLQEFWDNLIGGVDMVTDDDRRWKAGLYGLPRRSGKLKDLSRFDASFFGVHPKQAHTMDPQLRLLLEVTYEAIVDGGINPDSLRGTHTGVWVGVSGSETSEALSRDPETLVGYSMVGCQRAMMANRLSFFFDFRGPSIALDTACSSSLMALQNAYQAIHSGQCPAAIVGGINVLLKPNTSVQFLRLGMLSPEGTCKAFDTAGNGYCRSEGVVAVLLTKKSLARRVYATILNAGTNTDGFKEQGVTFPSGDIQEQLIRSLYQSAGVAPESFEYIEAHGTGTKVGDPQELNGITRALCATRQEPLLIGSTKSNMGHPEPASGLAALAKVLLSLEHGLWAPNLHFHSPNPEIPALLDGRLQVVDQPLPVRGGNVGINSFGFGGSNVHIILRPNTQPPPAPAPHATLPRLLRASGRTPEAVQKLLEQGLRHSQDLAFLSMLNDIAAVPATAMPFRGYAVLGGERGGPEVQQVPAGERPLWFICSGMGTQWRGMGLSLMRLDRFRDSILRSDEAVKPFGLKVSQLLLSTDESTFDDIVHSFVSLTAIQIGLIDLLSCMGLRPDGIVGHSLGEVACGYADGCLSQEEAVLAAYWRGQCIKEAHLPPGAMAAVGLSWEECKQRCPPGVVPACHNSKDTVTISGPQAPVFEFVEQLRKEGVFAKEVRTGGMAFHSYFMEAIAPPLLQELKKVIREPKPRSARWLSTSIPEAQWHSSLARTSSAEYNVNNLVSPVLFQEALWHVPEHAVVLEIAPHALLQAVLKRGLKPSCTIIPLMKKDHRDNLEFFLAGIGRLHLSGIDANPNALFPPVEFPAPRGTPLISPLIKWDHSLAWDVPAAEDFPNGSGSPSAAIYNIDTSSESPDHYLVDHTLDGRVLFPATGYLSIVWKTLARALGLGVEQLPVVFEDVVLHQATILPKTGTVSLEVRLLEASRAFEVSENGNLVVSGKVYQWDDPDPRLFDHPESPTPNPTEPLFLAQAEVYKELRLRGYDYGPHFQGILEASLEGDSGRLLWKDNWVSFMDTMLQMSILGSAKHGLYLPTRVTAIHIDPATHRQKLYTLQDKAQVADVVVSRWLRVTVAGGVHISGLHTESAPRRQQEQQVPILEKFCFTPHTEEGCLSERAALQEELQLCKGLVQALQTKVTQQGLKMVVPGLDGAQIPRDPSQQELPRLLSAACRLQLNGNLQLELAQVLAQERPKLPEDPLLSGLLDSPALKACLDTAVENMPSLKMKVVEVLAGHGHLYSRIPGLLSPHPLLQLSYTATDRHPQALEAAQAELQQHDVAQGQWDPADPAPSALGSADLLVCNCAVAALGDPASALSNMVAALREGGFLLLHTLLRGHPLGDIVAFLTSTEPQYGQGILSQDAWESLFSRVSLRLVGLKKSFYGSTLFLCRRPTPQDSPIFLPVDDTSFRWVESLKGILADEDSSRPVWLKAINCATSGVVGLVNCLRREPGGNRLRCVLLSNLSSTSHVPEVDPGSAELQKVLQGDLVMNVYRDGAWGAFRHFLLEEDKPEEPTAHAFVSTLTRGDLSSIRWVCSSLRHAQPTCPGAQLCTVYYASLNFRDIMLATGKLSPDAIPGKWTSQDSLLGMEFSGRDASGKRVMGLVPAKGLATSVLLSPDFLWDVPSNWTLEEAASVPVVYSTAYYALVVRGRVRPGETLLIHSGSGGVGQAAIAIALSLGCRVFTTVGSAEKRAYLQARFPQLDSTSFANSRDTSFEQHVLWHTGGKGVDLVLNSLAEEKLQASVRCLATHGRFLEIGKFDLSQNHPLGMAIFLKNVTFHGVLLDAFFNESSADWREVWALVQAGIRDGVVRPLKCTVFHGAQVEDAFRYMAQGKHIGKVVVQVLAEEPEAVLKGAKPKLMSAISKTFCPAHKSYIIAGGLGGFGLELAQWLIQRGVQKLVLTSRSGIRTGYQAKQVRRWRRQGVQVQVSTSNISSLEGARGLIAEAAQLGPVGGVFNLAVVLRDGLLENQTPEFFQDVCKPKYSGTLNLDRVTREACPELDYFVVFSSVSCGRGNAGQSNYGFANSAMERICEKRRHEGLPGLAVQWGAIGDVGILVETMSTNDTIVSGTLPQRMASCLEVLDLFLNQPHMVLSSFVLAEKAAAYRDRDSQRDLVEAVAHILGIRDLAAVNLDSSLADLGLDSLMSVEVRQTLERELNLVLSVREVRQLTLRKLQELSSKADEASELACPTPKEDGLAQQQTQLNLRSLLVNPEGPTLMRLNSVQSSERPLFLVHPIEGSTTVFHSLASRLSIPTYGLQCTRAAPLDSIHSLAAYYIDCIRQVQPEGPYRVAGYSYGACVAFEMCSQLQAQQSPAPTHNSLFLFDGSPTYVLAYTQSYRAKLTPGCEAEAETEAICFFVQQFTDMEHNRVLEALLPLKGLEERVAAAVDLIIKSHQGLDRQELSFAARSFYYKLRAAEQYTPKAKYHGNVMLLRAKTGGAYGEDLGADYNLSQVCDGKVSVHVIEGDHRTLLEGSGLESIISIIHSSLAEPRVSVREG
# Fatty acid synthase [4] = target: T1, Fatty acid synthase; experiment: FAS thioesterase domain inhibitors, dose response, biochemical, endpoint fluorescence intensity, uHTS hits (AID 624327); format: functional;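 also: fluorescence from hydrolysis of an O-methyl fluorescein acyl ester substrate by the enzyme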
# [5] = target: T2, Corticotropin-releasing factor receptor 2/Corticotropin-releasing factor-binding protein (Homo sapiens, UniProt P24387+Q13324); experiment: Dose Response confirmation of uHTS hits for small molecule antagonists of the CRF-binding protein and CRF-R2 receptor complex.; format: functional; conditions: read-out: IC50_Mean
# T2 sequence (Q13324 whole entry): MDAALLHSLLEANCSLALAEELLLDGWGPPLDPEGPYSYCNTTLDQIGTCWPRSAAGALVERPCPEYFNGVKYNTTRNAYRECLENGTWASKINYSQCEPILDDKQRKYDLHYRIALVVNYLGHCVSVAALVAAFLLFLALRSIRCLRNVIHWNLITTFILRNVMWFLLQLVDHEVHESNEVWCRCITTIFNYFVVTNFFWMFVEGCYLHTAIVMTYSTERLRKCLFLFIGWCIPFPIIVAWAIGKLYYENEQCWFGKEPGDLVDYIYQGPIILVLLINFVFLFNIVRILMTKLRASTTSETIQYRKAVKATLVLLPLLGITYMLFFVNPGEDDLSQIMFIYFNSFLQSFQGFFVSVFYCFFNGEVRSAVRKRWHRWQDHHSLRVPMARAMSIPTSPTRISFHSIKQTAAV
# T2 sequence (P24387 whole entry): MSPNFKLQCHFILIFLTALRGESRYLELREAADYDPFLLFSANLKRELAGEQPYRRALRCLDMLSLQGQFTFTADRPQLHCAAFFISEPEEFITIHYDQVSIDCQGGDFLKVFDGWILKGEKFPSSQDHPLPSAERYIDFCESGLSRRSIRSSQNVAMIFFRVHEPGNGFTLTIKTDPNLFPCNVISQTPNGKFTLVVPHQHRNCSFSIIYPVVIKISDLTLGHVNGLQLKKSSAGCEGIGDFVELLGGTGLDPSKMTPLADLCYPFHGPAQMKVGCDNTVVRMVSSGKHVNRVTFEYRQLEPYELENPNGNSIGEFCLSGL
# [6] = target: T2, Corticotropin-releasing factor receptor 2/Corticotropin-releasing factor-binding protein; experiment: activators of CRF receptor 2 with binding protein – uHTS hits, confirmation (AID 602473); format: functional; conditions: read-out: EC50_Mean
# H9c2 = experiment: cells; format: functional, cell-based; conditions: Rattus norvegicus, H9c2, Myocardium;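 also: confirmatory concentration-response retest of ultra-high-throughput screening hits for modulation of myocardial damage; cell death induced by hydrogen peroxide oxidative stress; compound pretreatment for 60 min then peroxide exposure for 2 h; potency is for protecting the cells against peroxide damage rather than for killing them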
# [7] = target: T3, Replicative DNA helicase DnaB (Mycobacterium tuberculosis, UniProt P9WMR3); experiment: DnaB intein splicing inhibitors, dose response, biochemical, cell-free fluorescence (AID 449749); format: functional
# T3 sequence (P9WMR3 whole entry): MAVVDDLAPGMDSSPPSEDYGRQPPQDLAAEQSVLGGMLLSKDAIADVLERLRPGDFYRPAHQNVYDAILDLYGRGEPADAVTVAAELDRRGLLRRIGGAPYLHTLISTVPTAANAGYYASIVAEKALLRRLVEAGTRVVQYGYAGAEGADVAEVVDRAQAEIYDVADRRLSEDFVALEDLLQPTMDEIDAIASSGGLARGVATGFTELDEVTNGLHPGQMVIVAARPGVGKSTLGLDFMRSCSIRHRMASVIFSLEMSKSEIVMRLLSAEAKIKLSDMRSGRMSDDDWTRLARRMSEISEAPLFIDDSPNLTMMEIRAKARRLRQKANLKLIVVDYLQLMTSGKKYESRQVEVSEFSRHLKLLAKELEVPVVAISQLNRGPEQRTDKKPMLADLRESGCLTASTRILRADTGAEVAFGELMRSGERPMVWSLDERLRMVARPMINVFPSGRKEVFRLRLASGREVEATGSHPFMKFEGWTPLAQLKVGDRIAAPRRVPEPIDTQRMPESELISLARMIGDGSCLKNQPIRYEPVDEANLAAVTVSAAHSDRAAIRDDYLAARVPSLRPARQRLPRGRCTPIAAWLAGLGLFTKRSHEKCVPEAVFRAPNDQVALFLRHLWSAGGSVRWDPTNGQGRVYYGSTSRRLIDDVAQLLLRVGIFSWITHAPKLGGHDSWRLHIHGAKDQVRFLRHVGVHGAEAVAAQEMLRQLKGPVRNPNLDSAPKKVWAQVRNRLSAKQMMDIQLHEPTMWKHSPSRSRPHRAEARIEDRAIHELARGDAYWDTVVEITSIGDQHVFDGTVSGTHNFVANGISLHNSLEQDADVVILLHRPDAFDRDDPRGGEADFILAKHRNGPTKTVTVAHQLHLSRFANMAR
# Protein RecA = target: T4, Protein RecA (Mycobacterium tuberculosis, UniProt P9WHJ3); experiment: Fluorescence Cell-Free Homogeneous Dose Retest to Identify Inhibitors of RecA-Intein Splicing Activity. [Related pubchem assays (depositor defined):AID2097, AID2223, AID489010, AID492950]; format: functional
# T4 sequence (P9WHJ3 whole entry): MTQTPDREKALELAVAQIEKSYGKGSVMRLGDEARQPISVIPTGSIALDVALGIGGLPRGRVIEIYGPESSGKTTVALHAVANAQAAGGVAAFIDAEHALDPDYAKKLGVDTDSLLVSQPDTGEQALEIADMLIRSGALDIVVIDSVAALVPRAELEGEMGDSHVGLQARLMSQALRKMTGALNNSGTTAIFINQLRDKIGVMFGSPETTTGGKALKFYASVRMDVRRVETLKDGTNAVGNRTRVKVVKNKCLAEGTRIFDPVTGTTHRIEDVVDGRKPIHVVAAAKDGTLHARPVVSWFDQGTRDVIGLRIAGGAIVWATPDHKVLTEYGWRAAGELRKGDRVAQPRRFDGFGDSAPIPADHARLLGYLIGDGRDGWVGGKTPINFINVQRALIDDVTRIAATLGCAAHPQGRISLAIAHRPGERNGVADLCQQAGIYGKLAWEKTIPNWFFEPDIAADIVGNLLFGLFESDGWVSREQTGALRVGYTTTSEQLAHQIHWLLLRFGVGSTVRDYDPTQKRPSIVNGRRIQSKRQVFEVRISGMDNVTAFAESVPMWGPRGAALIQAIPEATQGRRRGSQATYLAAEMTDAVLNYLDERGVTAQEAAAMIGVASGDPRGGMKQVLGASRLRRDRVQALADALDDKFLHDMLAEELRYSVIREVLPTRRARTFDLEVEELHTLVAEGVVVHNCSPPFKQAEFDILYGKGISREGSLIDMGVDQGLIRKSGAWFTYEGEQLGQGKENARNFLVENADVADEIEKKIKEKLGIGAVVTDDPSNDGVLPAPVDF
# [8] = inhibitors of intracellular T. cruzi replication, confirmation, NIH3T3 host cells, beta-gal luminescence (AID 2044); format: functional, cell-based;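 also: intracellular parasites grown in NIH/3T3 mouse fibroblasts as host cells; luminescent beta-galactosidase reporter signal from transgenic T. cruzi replicating inside host cells; inhibitors lower the luminescence signal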
# Cytochrome P450 3A4 = Cytochrome P450 3A4 (Homo sapiens, UniProt P08684);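 also: CYP3A4 tested as one member of a cytochrome P450 panel screen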
# Sequence of Cytochrome P450 3A4 (P08684 whole entry): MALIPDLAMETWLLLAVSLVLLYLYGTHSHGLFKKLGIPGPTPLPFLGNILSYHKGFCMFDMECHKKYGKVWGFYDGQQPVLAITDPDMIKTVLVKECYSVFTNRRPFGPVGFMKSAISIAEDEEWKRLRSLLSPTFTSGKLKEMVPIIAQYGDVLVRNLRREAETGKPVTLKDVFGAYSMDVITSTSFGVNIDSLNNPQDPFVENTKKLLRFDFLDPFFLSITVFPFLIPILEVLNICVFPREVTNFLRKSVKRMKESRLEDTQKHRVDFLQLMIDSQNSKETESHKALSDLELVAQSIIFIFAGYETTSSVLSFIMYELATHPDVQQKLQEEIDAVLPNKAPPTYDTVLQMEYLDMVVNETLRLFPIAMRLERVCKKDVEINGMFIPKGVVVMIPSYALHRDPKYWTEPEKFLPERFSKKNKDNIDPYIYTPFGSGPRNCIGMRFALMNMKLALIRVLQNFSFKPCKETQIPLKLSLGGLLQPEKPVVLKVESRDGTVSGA
# [9] = cytotoxicity toward NIH3T3 fibroblasts, dose response, counter-screen, cell-based, ATP luminescence, mouse fibroblasts (AID 2010); format: functional;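 also: cells exposed to compound for about 90 hours before reading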
smiles,measurement,setting,value
CCCc1cc(O)nc(SCC(=O)Nc2ccc(Br)cc2Br)n1,EC50,[1],1.38 µM (active)
same,EC50,[2],84.5 µM (active)
O=C(NCCN1C(=O)S/C(=C\c2ccccc2)C1=O)C1CCN(S(=O)(=O)c2cccs2)CC1,IC50,Fatty acid synthase [3],18.1 µM (active)
same,IC50,Fatty acid synthase [4],16.2 µM (active)
COc1ccc(CNC(=O)C2(c3ccc(Cl)cc3)CC2)cc1,IC50,[5],> 47.1 µM (inactive)
same,EC50,[6],> 53 µM (inactive)
COc1ccc(C2CCCCCN2C(=O)C2CCN(S(=O)(=O)c3cccc(C(C)=O)c3)CC2)cc1 (stereo unspecified),IC50,H9c2,> 79 µM (inactive)
Cc1ccc(NC(=O)c2cc(=O)c3ccccc3o2)cc1S(=O)(=O)N1CCOCC1,IC50,H9c2,> 79 µM (inactive)
O=C(Cc1cc(O)n[nH]1)N/N=C/c1ccccc1Cl,AC50,[7],2 µM (active)
same,EC50,Protein RecA,1.26 µM (active)
Cc1cc(C)c(C#N)c(SCC(=O)c2ccc(Cl)cc2Cl)n1,IC50,Fatty acid synthase [3],4.77 µM (active)
same,EC50,[8],0.169 µM (active)
same,AC50,Cytochrome P450 3A4,17.8 µM (inconclusive)
same,EC50,[9],> 60 µM (not active)
same,IC50,Fatty acid synthase [4],7.15 µM (active)
COc1cccc(CN2CCC(Oc3ccc(C(=O)NCc4ccccn4)cc3)CC2)c1O,IC50,[5],> 47.1 µM (inactive)
same,EC50,[6],> 53 µM (inactive)
CN(CC(=O)Nc1ccc(F)cc1)C(=O)COC(=O)c1cc([N+](=O)[O-])ccc1N1CCOCC1,IC50,Fatty acid synthase [3],7.99 µM (active)
same,IC50,Fatty acid synthase [4],6.68 µM (active)
OC1=C2C(=Nc3nn(-c4ccccc4)c(O)c3C2c2ccc3c(c2)OCO3)CCC1 (stereo unspecified),AC50,[7],40.9 µM (active)
same,EC50,Protein RecA,3.29 µM (active)
COc1ccccc1C(=O)COC(=O)c1c(-c2ccccc2)noc1C,IC50,[5],> 47.1 µM (inactive)
same,EC50,[6],> 53 µM (inactive)
O=C(CCNC(=O)c1ccc(Br)cc1)Nc1nccs1,EC50,[1],> 38 µM (not active)
same,EC50,[2],23.9 µM (inconclusive)
O=C(Cn1cnc2c(nnn2Cc2ccc(F)cc2)c1=O)NC1CCCC1,EC50,[1],> 38 µM (not active)
same,EC50,[2],> 150 µM (inactive)
CCCN(C(=O)c1cc(Cl)nc2ccccc12)C1CCS(=O)(=O)C1 (stereo unspecified),IC50,[5],> 47.1 µM (inactive)
same,EC50,[6],> 53 µM (inactive)
COc1ccc(C(=O)N/N=C\c2coc3ccc(Cl)cc3c2=O)cc1,AC50,[7],> 120 µM (inactive)
same,EC50,Protein RecA,19.8 µM (active)
CCN(CC(=O)Nc1ccc(NC(C)=O)cc1)C(=O)c1ccc(=O)n(C)n1,IC50,[5],> 47.1 µM (inactive)
same,EC50,[6],> 53 µM (inactive)
Cn1c2c(c(=O)n(C)c1=O)C(c1ccc(Br)cc1)Nc1ccccc1O2 (stereo unspecified),IC50,H9c2,25.7 µM (active)
O=C(CSc1nc2ccccc2n1S(=O)(=O)c1cccc([N+](=O)[O-])c1)NCCc1ccccc1,IC50,Fatty acid synthase [3],2.4 µM (active)
same,IC50,Fatty acid synthase [4],3.67 µM (active)
Cc1ccc(C(=O)N/N=C\c2ccccn2)cn1,IC50,[5],> 47.1 µM (inactive)
same,EC50,[6],> 53 µM (inactive)
Cc1nn(-c2cccc(Cl)c2)c2c1C(c1cccnc1)C(C#N)=C(N)O2 (stereo unspecified),AC50,[7],16.7 µM (active)
same,EC50,Protein RecA,5.05 µM (active)
CC1(C)Cc2ccccc2C(c2cc3ccccc3oc2=O)=N1,IC50,[5],> 47.1 µM (inactive)
same,EC50,[6],> 53 µM (inactive)
O=C(COc1ccc(Cl)cc1Cl)Nc1ccccc1F,IC50,[5],> 47.1 µM (inactive)
same,EC50,[6],> 53 µM (inactive)
COc1cc(CN2C[C@@H](CO)O[C@@H](n3cnc4c(Nc5ccccc5)ncnc43)C2)cc(OC)c1OC,IC50,H9c2,9.14 µM (active)
Cc1ccc(S(=O)(=O)/N=C(/c2ccccc2)N2CCOCC2)c(C)c1,EC50,[1],> 38 µM (not active)
same,EC50,[2],> 160 µM (inconclusive)
Cc1nn(-c2ccccc2)nc1C(=O)Nc1cccc(C(=O)NC2CC2)c1,IC50,H9c2,> 79 µM (inactive)
Cc1ccc(-n2c(S)nnc2Cc2ccccc2)c(C)c1,EC50,[1],2.71 µM (active)
same,EC50,[2],> 150 µM (inactive)
CCC(=O)Nc1c(C)nn(C(=O)CC)c1C,AC50,[7],> 380 µM (inactive)
same,EC50,Protein RecA,> 380 µM (inactive)
CC(C)(C)c1ccc(C(=O)CS(=O)(=O)c2ccccc2)cc1,IC50,[5],> 47.1 µM (inactive)
same,EC50,[6],> 53 µM (inactive)
COc1ccc(N2C(=O)C(Cl)=C(NCc3ccccc3)C2=O)cc1,AC50,[7],68.8 µM (active)
same,EC50,Protein RecA,12.9 µM (active)
O=C(Nc1ncc([N+](=O)[O-])s1)c1ccco1,AC50,[7],24.2 µM (active)
same,EC50,Protein RecA,17.4 µM (active)
O=C(O)CC(NC(=O)C(c1ccccc1)c1ccccc1)c1cccc([N+](=O)[O-])c1 (stereo unspecified),IC50,Fatty acid synthase [3],7.4 µM (active)
same,IC50,Fatty acid synthase [4],9.02 µM (active)
C[C@H](NC(=O)c1[nH]cnc1C(=O)N[C@@H](CCCCNC(=O)OC(C)(C)C)C(=O)OC(C)(C)C)C(=O)OCc1ccccc1,IC50,Fatty acid synthase [3],0.176 µM (active)
same,IC50,Fatty acid synthase [4],0.349 µM (active)
CN(C(=O)c1sc2nc(N3CCOCC3)c3c(c2c1N)CCCC3)c1ccccc1,IC50,H9c2,> 79 µM (inactive)
COc1ccccc1NC(=O)COC(=O)c1cc([N+](=O)[O-])ccc1N1CCCC1,IC50,Fatty acid synthase [3],6.41 µM (active)
same,IC50,Fatty acid synthase [4],5 µM (active)
Cc1c(C(=O)Nc2c(F)cccc2F)sc2ncn(CC(=O)N3CCCCC3)c(=O)c12,IC50,[5],> 47.1 µM (inactive)
same,EC50,[6],> 53 µM (inactive)
COc1ccc(C(=O)Nc2cc([N+](=O)[O-])ccc2N2CCCC2)cc1,IC50,Fatty acid synthase [3],12.3 µM (active)
same,IC50,Fatty acid synthase [4],15.1 µM (active)
C=CCn1c(SCc2nc(O)c3ccccc3n2)nnc1-c1cc2cc(Cl)ccc2o1,EC50,[1],0.052 µM (active)
same,EC50,[2],> 150 µM (inactive)
